Experimental data from patent US20140113877A1, “NOVEL 3,4,4A,10B-TETRAHYDRO-1H-THIOPYRANO[4,3-C] ISOQUINOLINE COMPOUNDS” (Takeda GmbH, priority 2011, published 2014).
Read-outs that look alike come from different tables or passages of the source.

What was measured:
[1] = system: pulmonary fibrosis; details: patients with pulmonary fibrosis, open-label trials; cited from earlier work
[2] = system: bleomycin-induced pulmonary fibrosis and pulmonary hypertension; details: in vivo; cited from earlier work
[3] = system: bleomycin-induced lung fibrotic remodeling; details: mice, preventive and therapeutic protocols; cited from earlier work
[4] = system: bleomycin-induced lung fibrotic remodeling; details: rat, preventive and therapeutic protocols; cited from earlier work
[5] = biological target: T1, human PDE5 (Homo sapiens, UniProt O76074); assay: Inhibition of PDE5 activity (SPA, [3H]cGMP, platelet lysate); format: biochemical; details: 0.5 μM cGMP, binned: below 8 / between 8 and 9, read-out: PDE5 inhibitory values measured as −logIC50 (converted)
T1 construct: from tissue; host or cells: human platelets from fresh donor blood (platelet lysate)
Protocol: As a source for human PDE5, platelets were used. For that purpose, 150 ml fresh blood from human donors anticoagulated with citrate [final concentration 0.3% (w/v)] was centrifuged at 200 g for 10 min to obtain the so-called platelet-rich-plasma (PRP) as a supernatant. 1/10 volume of ACD solution (85 mM Na3-citrate, 111 mM D-glucose, 71 mM citric acid, pH 4.4) was added to 9/10 volume of PRP. After centrifugation (1,400 g, 10 min) the cell pellet was resuspended in 3 ml homogenization buffer (NaCl 140 mM, KCl 3.8 mM, EGTA (ethylene glycol tetraacetic acid) 1 mM, MgCl2 1 mM, Tris-HCl 20 mM, beta-mercaptoethanol 1 mM, pH 8.2) plus protease-inhibitor mix resulting in final concentrations of 0.5 mM Pefablock (Roche), 10 μM Leupeptin, 5 μM Trypsine inhibitor, 2 mM Benzamidin and 10 μM Pepstatin A. The suspension was sonicated and thereafter centrifuged for 15 min at 10,000 g. The resulting supernatant (platelet lysate) was used for enzymatic assays.
PDE5 activities were measured in a 96-well platform using SPA (scintillation proximity assay) yttrium silicate beads (RPNQ1050 from GE Healthcare). In a first step the PDE activity operated hydrolysis of either [^3H] cGMP (substrate) into [^3H] 5′GMP. In a second step substrate and product were distinguished following addition of SPA yttrium silicate beads. Indeed, in the presence of zinc sulphate the linear [^3H] […] Close proximity of bound [^3H] […] The test volume was 100 μl and contained 20 mM Tris buffer (pH 7.4), 0.1 mg of BSA (bovine serum albumin)/ml, 5 mM Mg^2+, 1 μM motapizone (PDE3 Inhibitor), 10 nM PDE2 inhibitor 2-(3,4-dimethoxybenzyl)-7-[(1R,2R)-2-hydroxy-1-(2-phenylethyl)propyl]-5-methylimidazo[5,1-f][1,2,4]triazin-4(3H)-one, 0.5 μM cGMP (cyclic guanosine monophosphate) (including about 50,000 cpm of [3H]cGMP as a tracer) (substrate), 1 μl of the respective compound dilution in dimethylsulfoxide (DMSO) and sufficient PDE5-containing platelet lysat (10,000×g supernatant, see above) to ensure that 10-20% of the cGMP was converted under the said experimental conditions. […] After a preincubation of 5 min at 37° C., the reaction was commenced by adding the substrate (cGMP) and the assay was incubated for a further 15 min. The reaction was terminated by adding SPA beads (50 μl). In agreement with the manufacturer's instructions, the SPA beads had previously been resuspended in water, but were then diluted 1:3 (v/v) in water. This diluted solution also contained 3 mM 8-methoxymethyl-3-isobutyl-1-methylxanthine (IBMX) to ensure a complete block of PDE activity. Once the beads were sedimented (>30 min), the MTP's were analyzed in commercially available luminescence detection devices. The corresponding IC50 values of the compounds for inhibition of PDE activity were determined from the concentration-effect curves by means of non-linear regression.
For the following compounds PDE5 inhibitory values [measured as −logIC50 (mol/l)] below 8 and between 8 and 9 have been determined. The numbers of the compounds correspond to the numbers of the examples.

[6] = biological target: T2, PDE4B1 (Homo sapiens, UniProt Q07343); assay: Inhibition of PDE4B1 activity (SPA, [3H]cAMP); format: biochemical; details: recombinant PDE4B1, 0.5 μM cAMP; binned: below 8 / between 8 and 9; read-out: PDE4B1 inhibitory values measured as −logIC50 (converted)
T2 construct: made in house; host or cells: SF21 insect cells (baculovirus; virus prepared in SF9 cells)
T2 sequence (Q07343 whole entry): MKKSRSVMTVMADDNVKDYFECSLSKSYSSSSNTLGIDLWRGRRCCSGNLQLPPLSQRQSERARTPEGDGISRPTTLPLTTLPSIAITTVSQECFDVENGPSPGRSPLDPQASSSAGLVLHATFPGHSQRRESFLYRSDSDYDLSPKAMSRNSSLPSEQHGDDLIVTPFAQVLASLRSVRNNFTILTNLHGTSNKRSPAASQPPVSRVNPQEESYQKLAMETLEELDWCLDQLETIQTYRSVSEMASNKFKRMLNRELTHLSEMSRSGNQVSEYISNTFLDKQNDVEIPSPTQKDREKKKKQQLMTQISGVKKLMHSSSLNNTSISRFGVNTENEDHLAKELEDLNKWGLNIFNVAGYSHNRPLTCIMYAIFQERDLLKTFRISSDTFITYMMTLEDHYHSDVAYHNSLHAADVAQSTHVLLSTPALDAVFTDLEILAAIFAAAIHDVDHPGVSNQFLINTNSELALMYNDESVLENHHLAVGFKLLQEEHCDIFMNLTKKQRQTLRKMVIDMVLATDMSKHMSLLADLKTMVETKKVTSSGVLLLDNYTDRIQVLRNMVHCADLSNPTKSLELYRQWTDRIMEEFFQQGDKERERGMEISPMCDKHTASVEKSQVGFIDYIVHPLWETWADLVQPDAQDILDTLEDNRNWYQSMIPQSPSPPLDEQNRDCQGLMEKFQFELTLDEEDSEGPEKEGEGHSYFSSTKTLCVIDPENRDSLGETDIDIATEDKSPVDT
Protocol: The PDE4B1 (GB no. L20966) was a gift of Prof. M. Conti (Stanford University, USA). It was amplified from the original plasmid (pCMV5) via PCR with primers Rb18 (5′-[…]-3′) and Rb10 (5′-[…]-3′) and cloned into the pCR-Bac vector (Invitrogen, Groningen, NL).
The recombinant baculovirus was prepared by means of homologous recombination in SF9 insect cells. The expression plasmids were cotransfected with Baculo-Gold DNA (Pharmingen, Hamburg) using a standard protocol (Pharmingen, Hamburg). Wt virus-free recombinant virus supernatants were selected using plaque assay methods. After that, high-titre virus supernatants were prepared by amplifying 3 times. PDE4B1 was expressed in SF21 cells by infecting 2×10^6 cells/ml with an MOI (multiplicity of infection) between 1 and 10 in the serum-free SF900 medium (GIBCO Life Technologies, Karlsruhe, Germany). The cells were cultured at 28° C. for 48-72 hours, after which they were pelleted for 5-10 min at 1000×g and 4° C.
The SF21 insect cells were resuspended, at a concentration of approx. 10^7 cells/ml, in ice-cold (4° C.) homogenization buffer (20 mM Tris, pH 8.2, containing the following additions: 140 mM NaCl, 3.8 mM KCl, 1 mM EGTA, 1 mM MgCl2, 10 mM β-mercaptoethanol, 2 mM benzamidine, 0.4 mM Pefablock, 10 μM leupeptin, 10 μM pepstatin A, 5 μM trypsin inhibitor) and disrupted by ultrasonication. The homogenate was then centrifuged for 10 min at 1000×g and the supernatant was stored at −80° C. until subsequent use (see below). The protein content was determined by the Bradford method (BioRad, Munich) using BSA (Bovine serum albumin) as the standard.
PDE4B1 activities were measured in a 96-well platform using SPA (scintillation proximity assay) yttrium silicate beads (RPNQ1050 from GE Healthcare). In a first step the PDE activity operated hydrolysis of either [^3H] cAMP (substrate) into [^3H] 5′AMP. In a second step substrate and product were distinguished following addition of SPA yttrium silicate beads. Indeed, in the presence of zinc sulphate the linear [^3H] […] Close proximity of bound [^3H] […] The test volume was 100 μl and finally contained 20 mM Tris buffer (pH 7.4), 0.1 mg/ml of BSA, 5 mM Mg^2+, 0.5 μM cAMP (including about 50,000 cpm of [3H]cAMP) as substrate, 1 μl of the respective substance dilution in DMSO and sufficient recombinant PDE (1000×g supernatant, see above) to ensure that 10-20% of the cAMP was converted under the said experimental conditions. […] After a preincubation of 5 min at 37° C., the reaction was commenced by adding the substrate (cAMP) and the assays were incubated for a further 15 min. Reactions were terminated by adding SPA beads (50 μl). In agreement with the manufacturer's instructions, the SPA beads had previously been resuspended in water, but were then diluted 1:3 (v/v) in water. This diluted solution further contained 3 mM IBMX (isobutylmethylxanthine) to ensure a complete block of PDE activity. Once the beads were sedimented (>30 min), the MTP's (microtiter plate) were analyzed in commercially available luminescence detection devices. The corresponding IC50 values of the compounds for inhibition of PDE4B1 activity were determined from the concentration-effect curves by means of non-linear regression.
For the following compounds PDE4B1 inhibitory values [measured as −logIC50 (mol/l)] below 8 and between 8 and 9 have been determined. The numbers of the compounds correspond to the numbers of the examples.

IC50 [5] [µM] | IC50 [6] [µM] | SMILES | further results
 |  | CCCc1nn(C)c2c(=O)[nH]c(-c3cc(S(=O)(=O)N4CCN(C)CC4)ccc3OCC)nc12 [sildenafil] | exercise tolerance [1]: increases exercise tolerance; lung hemodynamic parameters (vascular resistance and ventilation/perfusion matching) [1]: improves lung hemodynamic parameters; effect on bleomycin-induced pulmonary fibrosis and pulmonary hypertension [2]: attenuates bleomycin-induced pulmonary fibrosis and pulmonary hypertension
 |  | O=C(Nc1c(Cl)cncc1Cl)c1ccc(OC(F)F)c(OCC2CC2)c1 [roflumilast] | effect on bleomycin-induced lung fibrotic remodeling [3]: alleviate bleomycin-induced lung fibrotic remodeling; effect on bleomycin-induced lung fibrotic remodeling [4]: alleviate bleomycin-induced lung fibrotic remodeling
0.001 to 0.01 | 0.001 to 0.01 | CCOc1cc2c(cc1OC)C(c1ccc(C(=O)N3CCC(n4c(=O)c5sc(-c6ccccc6)cc5n(Cc5ccc(OC)c(F)c5F)c4=O)CC3)cc1)=N[C@@H]1CCSC[C@H]21 [Example 4, 1-(2,3-difluoro-4-methoxybenzyl)-3-[1-({4-[(4aR,10bR)-9-ethoxy-8-methoxy-3,4,4a,10b-tetrahydro-1H-thiopyrano[4,3-c]isoquinolin-6-yl]phenyl}carbonyl)piperidin-4-yl]-6-phenylthieno[3,2-d]pyrimidine-2,4(1H,3H)-dione] | 
0.001 to 0.01 | 0.001 to 0.01 | CCOc1cc2c(cc1OC)C(c1cccc(C(=O)N3CCC(n4c(=O)c5sc(-c6ccccc6)cc5n(Cc5ccc(OC)c(F)c5)c4=O)CC3)c1)=N[C@@H]1CCSC[C@H]21 [Example 2, 3-[1-({3-[(4aR,10bR)-9-ethoxy-8-methoxy-3,4,4a,10b-tetrahydro-1H-thiopyrano[4,3-c]isoquinolin-6-yl]phenyl}carbonyl)piperidin-4-yl]-1-(3-fluoro-4-methoxybenzyl)-6-phenylthieno[3,2-d]pyrimidine-2,4(1H,3H)-dione] | 
> 0.01 | 0.001 to 0.01 | CCOc1cc2c(cc1OC)C(c1ccc(C(=O)N3CCC(n4c(=O)c5sc(-c6ccc(F)cc6OC)cc5n(Cc5ccc(OC)c(F)c5F)c4=O)CC3)cc1)=N[C@@H]1CCSC[C@H]21 [Example 15, 1-(2,3-difluoro-4-methoxybenzyl)-3-[1-({4-[(4aR,10bR)-9-ethoxy-8-methoxy-3,4,4a,10b-tetrahydro-1H-thiopyrano[4,3-c]isoquinolin-6-yl]phenyl}carbonyl)piperidin-4-yl]-6-(4-fluoro-2-methoxyphenyl)thieno[3,2-d]pyrimidine-2,4(1H,3H)-dione] | 
0.001 to 0.01 | 0.001 to 0.01 | CCOc1cc2c(cc1OC)C(c1ccc(C(=O)N3CCC(n4c(=O)c5sc(-c6ccccc6)cc5n(Cc5ccc(OC)c(F)c5)c4=O)CC3)cc1)=N[C@@H]1CCSC[C@H]21 [Example 1, 3-(1-{4-[(4aR,10bR)-9-ethoxy-8-methoxy-3,4,4a,10b-tetrahydro-1H-thiopyrano[4,3-c]isoquinolin-6-yl]benzoyl}piperidin-4-yl)-1-(3-fluoro-4-methoxybenzyl)-6-phenylthieno[3,2-d]pyrimidine-2,4(1H,3H)-dione] | 
> 0.01 | 0.001 to 0.01 | CCOc1cc2c(cc1OC)C(c1ccc(C(=O)N3CCC(n4c(=O)c5sc(-c6ccc(F)cc6OC)cc5n(Cc5ccccc5)c4=O)CC3)cc1)=N[C@@H]1CCSC[C@H]21 [Example 17, 1-benzyl-3-[1-({4-[(4aR,10bR)-9-ethoxy-8-methoxy-3,4,4a,10b-tetrahydro-1H-thiopyrano[4,3-c]isoquinolin-6-yl]phenyl}carbonyl)piperidin-4-yl]-6-(4-fluoro-2-methoxyphenyl)thieno[3,2-d]pyrimidine-2,4(1H,3H)-dione] | 
